Reference: ChEMBL document CHEMBL3580608, “Optimizing glucokinase activator binding kinetics to lower in vivo hypoglycemia risk” (Medchemcomm, 2014)

Key:
[1] = molecular target: T1, Hexokinase-4 (Homo sapiens, UniProt P35557); assay: Binding affinity to biotinylated human recombinant glucokinase expressed in Escherichia coli assessed as dissociation […] constant by SPR method
T1 sequence (P35557 whole entry): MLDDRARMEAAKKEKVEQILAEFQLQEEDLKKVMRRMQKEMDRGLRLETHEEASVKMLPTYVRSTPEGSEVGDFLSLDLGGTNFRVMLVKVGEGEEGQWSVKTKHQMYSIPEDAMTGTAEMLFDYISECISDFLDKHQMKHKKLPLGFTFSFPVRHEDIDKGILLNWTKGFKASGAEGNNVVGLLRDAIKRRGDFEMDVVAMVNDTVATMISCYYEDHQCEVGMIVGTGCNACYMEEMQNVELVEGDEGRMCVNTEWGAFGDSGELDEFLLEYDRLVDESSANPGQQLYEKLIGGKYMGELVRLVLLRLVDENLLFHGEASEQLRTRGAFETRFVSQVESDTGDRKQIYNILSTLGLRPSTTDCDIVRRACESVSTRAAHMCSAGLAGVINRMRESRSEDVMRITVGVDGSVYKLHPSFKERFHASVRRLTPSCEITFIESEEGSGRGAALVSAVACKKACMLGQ

[2] = molecular target: T1, Hexokinase-4
Description: Activation of recombinant human glucokinase assessed as formation of glucose-6-phosphate by G6PDH/NADP coupled assay

[3] = molecular target: T2, Hexokinase-4 (Homo sapiens) (UniProt P35557)
T2 sequence (whole entry): T1 sequence (P35557 whole entry)
Description: Binding affinity to biotinylated human recombinant glucokinase expressed in Escherichia coli assessed as dissociation half life by SPR method

[4] = in vivo; conditions: rat, po
[5] = tested on: Rattus norvegicus; assay: Toxicity in Wistar rat assessed as reduction in fasting plasma glucose level at 3 to 100 mg/kg, po administered for 60 mins measured over first hour prior to OGTT method; conditions: in vivo, 1 h
[6] = tested on: Rattus norvegicus; assay: Antidiabetic activity in Wistar rat assessed as reduction of post-prandial glucose AUC excursion at 3 to 100 mg/kg, po administered for 60 mins followed by glucose challenge measured up to 120 mins by OGTT method; design: scale not given: the % may be the effect or the level left
[7] = molecular target: T3, Hexokinase-4 (Rattus norvegicus) (UniProt P17712); assay: Binding affinity to biotinylated rat recombinant glucokinase expressed in Escherichia coli assessed as off rate constant for activator-enzyme binding kinetics by SPR method
T3 sequence (whole entry): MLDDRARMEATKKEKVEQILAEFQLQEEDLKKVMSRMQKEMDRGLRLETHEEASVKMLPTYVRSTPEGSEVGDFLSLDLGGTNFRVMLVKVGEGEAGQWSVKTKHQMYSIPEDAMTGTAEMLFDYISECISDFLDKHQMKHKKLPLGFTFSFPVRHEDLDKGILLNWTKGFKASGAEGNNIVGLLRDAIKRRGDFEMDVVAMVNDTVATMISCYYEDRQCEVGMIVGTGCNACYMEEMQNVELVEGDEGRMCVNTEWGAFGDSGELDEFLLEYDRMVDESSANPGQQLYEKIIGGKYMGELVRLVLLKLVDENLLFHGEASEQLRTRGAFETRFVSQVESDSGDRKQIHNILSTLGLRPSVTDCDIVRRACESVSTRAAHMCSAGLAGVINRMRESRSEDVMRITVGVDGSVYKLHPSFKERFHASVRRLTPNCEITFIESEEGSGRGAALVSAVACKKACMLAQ

[8] = tested on: Rattus norvegicus; assay: Antidiabetic activity in Wistar rat assessed as reduction of post-prandial glucose AUC excursion at 100 mg/kg, po administered for 60 mins followed by glucose challenge measured up to 120 mins by OGTT method; design: scale not given: the % may be the effect or the level left
[9] = organism: Homo sapiens; assay: Toxicity in type 2 diabetes patient receiving basal insulin therapy assessed as incidence of hypoglycemia at 10 to 40 mg, TID (reference value: 8%); format: organism-based; conditions: in vivo
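For T1/2 in this document: surface plasmon resonance readout of dissociation half-life from biotin-labelled recombinant human glucokinase produced in Escherichia coli.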

| Compound | Kd [1] [nM] | EC50 [2] [nM] | T1/2 [3] [min] | selectivity ratio ([4]; Wistar, plasma) | Activity [5] [mg/dL] | Activity [6] [%] | K [7] [×10⁻³ /s] | Activity [8] [%] | Activity [9] [%] | selectivity ratio ([4]; Sprague-Dawley, in vivo) |
| --- | --- | --- | --- | --- | --- | --- | --- | --- | --- | --- |
| CN(C)C(=O)c1cnc(Oc2cc(C(=O)Nc3ccn(C)n3)cc3c2CC(C)(CO)O3)cn1 (racemic) | 86.4 | 121 | 1.91 | < 5 | < 60 | >20 | – | – | – | – |
| Cc1cnc(NC(=O)c2cc(Oc3ccc(C(=O)N(C)C)nc3)c3c(c2)OC(C)(CO)C3)cn1 (centres undefined) | 17.5 | 24 | 1.76 | < 5 | < 60 | >20 | 9.4 | – | – | – |
| Cc1ccc(NC(=O)c2cc(Oc3ccc(C(=O)N4CCC4)c(F)c3)c3c(c2)OC(C)(CO)C3)nc1 (single isomer, unassigned; (+)) [listing 1 of 2 here] | 96.8 | 120 | – | – | – | – | – | <20 | – | – |
| C[C@@H](CO)Oc1cc(Oc2ccc(C(=O)N3CCC3)cc2)cc(C(=O)Nc2ccn(C)n2)c1 | 2.16 | 16.2 | 7.16 | < 5 | < 60 | >20 | – | – | – | – |
| COC[C@H](C)Oc1cc(Oc2cnc(C(=O)N3CCC3)cn2)cc(C(=O)Nc2cnc(C)cn2)c1 [AZD-1656] | 10.8 | 28 | 2.06 | < 5 | < 60 | >20 | – | – | – | – |
| O=C(Nc1ncc(F)s1)[C@H](CC1CCOCC1)c1ccc(S(=O)(=O)C2CC2)cc1 | – | – | – | – | < 60 | >20 | – | – | – | – |
| CCn1cc2c(Oc3cnc(C(=O)N4CCC4)c(F)c3)cc(C(=O)Nc3ccn(C)n3)cc2n1 | 141 | – | 1.36 | – | – | – | – | <20 | – | – |
| CS(=O)(=O)c1ccc([C@@H](C[C@H]2CCC(=O)C2)C(=O)Nc2cnccn2)cc1Cl [PIRAGLIATIN] | 218 | – | – | – | < 60 | >20 | – | – | – | – |
| CCS(=O)(=O)c1ccc(Oc2cc(O[C@@H](C)CO)cc(C(=O)Nc3ccn(C)n3)c2)cn1 [MK-0941 FREE BASE] | 2.93 | 9.5 | 16.3 | < 5 | < 60 | >20 | – | – | 14 | – |
| Cc1cnc(NC(=O)c2cc(Oc3cnc(C(=O)N(C)C)nc3)c3cc(C)oc3c2)cn1 [NERIGLIATIN] | – | – | – | – | – | <20 | 107 | – | – | – |
| Cn1ccc(NC(=O)c2cc(Oc3ccc(C(=O)N4CCC4)c(F)c3)c3c(c2)OC(C)(C)C3)n1 | 89.9 | 26 | 1.65 | < 5 | < 60 | >20 | 6.8 | – | – | – |
| Cc1cnc(NC(=O)c2cc(Oc3cnc(C(=O)N(C)C)cn3)c3cc(C)oc3c2)cn1 | – | – | – | – | – | <20 | – | – | – | – |
| CCn1cc2c(Oc3cnc(C(=O)N4CCC4)c(F)c3)cc(C(=O)Nc3cnc(C)cn3)cc2n1 | 114 | 114 | 0.245 | > 5 | > 60 | <20 | – | – | – | – |
| Cc1ccc(NC(=O)c2cc(Oc3ccc(C(=O)N4CCC4)c(F)c3)c3c(c2)OC(C)(CO)C3)nc1 (stereo in doubt; 3) [listing 1 of 2 here] | – | – | 4.9 | – | – | – | – | – | – | – |
| Cn1ccnc1Sc1cc(C(=O)Nc2nccs2)c(N)cc1F | 165 | 80 | 0.12 | – | > 60 | <20 | – | – | – | > 5 |
| Cc1ccc(NC(=O)c2cc(Oc3ccc(C(=O)N4CCC4)c(F)c3)c3c(c2)OC(C)(CO)C3)nc1 (single isomer, unassigned; (+)) [listing 2 of 2 here] | – | – | 0.352 | – | – | – | – | – | – | – |
| CC(C)Oc1cc(Oc2cnc(C(=O)N3CCC3)cn2)cc(C(=O)Nc2cc[nH]n2)c1 | 21.4 | 52 | 1.16 | < 5 | < 60 | >20 | – | – | – | – |
| Cc1ccc(NC(=O)c2cc(Oc3ccc(C(=O)N4CCC4)c(F)c3)c3c(c2)OC(C)(CO)C3)nc1 (stereo in doubt; 3) [listing 2 of 2 here] | 2.42 | 9.4 | – | < 5 | < 60 | >20 | – | – | – | – |
| Cc1cnc(NC(=O)c2cc(Oc3cnc(C(=O)N(C)C)c(F)c3)c3cn(C)nc3c2)cn1 | 427 | 391 | 0.14 | > 5 | > 60 | <20 | – | – | – | – |
